Data on 9 compounds can be found in patent US9951087B2, “Fused ring analogues of anti-fibrotic agents” (Fibrotech Therapeutics PTY LTD, priority 2009, dated 2018).

The structures appear in SMILES notation.

Data set [1] concerns rat mesangial cells. Description: Toxicity rank and cell condition observed in the proline incorporation assay. Type of data set: cell-based. Details: key to Tox. Rank (4 = non-toxic): (4 = non-toxic). Conditions: for Cell condition observed (sick, dead, some death, cells elongated): 100 μM; for Cell condition observed (sick, dead): 30 μM. As to the method: (§1) A well-characterised cloned rat mesangial cell line (Kakizaki Y, Kraft N, Atkins R C: Differential control of mesangial cell proliferation by interferon-gamma. Clin Exp Immunol 85:157-163, 1991) was cultured in DMEM (5 mM glucose) with 5% FBS, 100U/mL penicillin, and 100 ug/mL streptomycin in humidified 5% CO2 atmosphere at 37 C. Cells were used up to passage 40.
(§2) Cells were plated into 24-well culture dishes in DMEM/5% FBS and allowed to adhere overnight. The subconfluent cells were then starved overnight in DMEM/0.1% FBS and 150 uM L-ascorbic acid, prior to pre-treatment with or without FibroTech compounds for 4 hours at 10, 30 or 100 uM in 0.1% DMSO, final concentration. TGF-beta 1 at 5 ng/mL (Peprotech) and tritiated proline (Perkin-Elmer, (2,3,4,5-^3H)-proline) at 1 uCi/mL were added and the incubation continued for a further 44 hours. Treatments were performed in triplicate.

For data set [2], the system named is rat mesangial cells. Description: Proline incorporation assay: reduction of TGF-beta 1 stimulated proline incorporation. The format is cell-based. Conditions: Mesangial cell, 44 h, TGF-beta 1 5 ng/mL, read-out: Percentage Reduction of TGF-Beta 1 Stimulated Proline Incorporation; for inhibition at 10 µM: 10 μM compound; for inhibition at 30 µM: 30 μM compound; for inhibition at 100 µM: 100 μM compound. As to the method: as §1
Proline Incorporation Assay
as §2
After the incubation, cells were placed on ice and washed three times with ice cold PBS. They were then incubated on ice with 10% TCA for 30 minutes, followed by a final wash in cold 10% TCA. The cells were solubilized in 0.75 mL of 1M NaOH at 37 C for 45 minutes, or overnight at 4 C. Aliquots of the solubilized cells were neutralized in an equal amount of 1M HCl and counted in scintillant in a beta counter. Aliquots of neutralized solubilized cells were assayed for protein using the BioRad Bradford Protein Assay. Proline incorporation was normalized for protein content (cpm ^3H-proline incorporated per ug protein).
In order to compare the results of experiments performed on different days, the percentage inhibition of proline incorporation was calculated for each treatment by setting the TGF treatment at 0% inhibition and the control (incubation with media alone) at 100% inhibition.
Percentage Reduction of TGF-Beta 1 Stimulated Proline Incorporation: […]

As to `COc1ccc(/C=C/C(=O)N2CCOc3ccccc32)cc1OC` [FT122, (E)-1-(2,3-Dihydrobenzo[b][1,4]oxazin-4-yl)-3-(3,4-dimethoxyphenyl)prop-2-en-1-one], the “Cell condition observed (sick, dead, some death, cells elongated)” value in the data set on rat mesangial cells [1] is recorded as “dead”. For the same compound, the “Tox. Rank (4 = non-toxic)” value with rat mesangial cells [1] (@30 uM) is 4@30 uM. Further, the “Tox. Rank (4 = non-toxic)” value with rat mesangial cells [1] (@100 uM) is on record as 1@100 uM. In the data set on rat mesangial cells [2], the inhibition at 10 µM is around 25% and the inhibition at 30 µM was around 80%.
Take `COc1ccc(/C=C/c2nc3ccccc3[nH]2)cc1OC` [FT121, (E)-2-(3,4-Dimethoxystyryl)-1H-benzo[d]imidazole]: the “Cell condition observed (sick, dead, some death, cells elongated)” value in the data set on rat mesangial cells [1] is on record as “dead”. Further, the “Tox. Rank (4 = non-toxic)” value in the data set with rat mesangial cells [1] (@30 uM) is recorded as 3@30 uM. Also, the “Tox. Rank (4 = non-toxic)” value in the data set with rat mesangial cells [1] (@100 uM) is recorded as 1@100 uM. In addition, in the data set with rat mesangial cells [2], the inhibition at 10 µM is around 60% and the inhibition at 30 µM is above 100%.
As to `COc1cc2c(cc1OC)S(=O)(=O)C(C(=O)Nc1ccccc1C(=O)O)=C2` [FT128, 2-(1,1-Dioxo-5,6-dimethoxybenzo[b]thiophene-2-carboxamido)benzoic acid], the “Cell condition observed (sick, dead, some death, cells elongated)” value in the data set on rat mesangial cells [1] is on record as “(some death)”. The “Tox. Rank (4 = non-toxic)” value in the data set on rat mesangial cells [1] (@100 uM) is reported as 3@100 uM. Moreover, in the data set with rat mesangial cells [2], the inhibition at 10 µM was around 20%, the inhibition at 30 µM was around 20% and the inhibition at 100 µM is around 40%.
For `COc1cc2c(cc1OC)CC(C(=O)Nc1ccccc1C(=O)O)=C2` [FT126, 2-(5,6-Dimethoxy-1H-indene-2-carboxamido)benzoic acid], the “Tox. Rank (4 = non-toxic)” value in the data set on rat mesangial cells [1] (no concentration stated) worked out at 4. Also, in the data set on rat mesangial cells [2], the inhibition at 10 µM is around 55%, the inhibition at 30 µM was around 75% and the inhibition at 100 µM is around 100%.
Turning to `COc1cc2nc(C(=O)Nc3ccccc3C(=O)O)[nH]c2cc1OC` [FT127, 2-(5,6-Dimethoxy-1H-benzo[d]imidazole-2-carboxamido)benzoic acid], the “Tox. Rank (4 = non-toxic)” value in the data set with rat mesangial cells [1] (no concentration stated) turned out to be 4. For the same compound, in the data set on rat mesangial cells [2], the inhibition at 10 µM came to 0%, the inhibition at 30 µM came to 0% and the inhibition at 100 µM was around 50%.
For the compound `COc1ccc(/C=C/C(=O)N2CC(=O)Nc3ccccc32)cc1OC` [FT125, (E)-4-(3-(3,4-Dimethoxyphenyl)acryloyl)-3,4-dihydroquinoxalin-2(1H)-one], in the data set with rat mesangial cells [1], the “Cell condition observed (sick, dead)” value is given as “sick” and the “Cell condition observed (sick, dead, some death, cells elongated)” value is on record as “sick”. Also, the “Tox. Rank (4 = non-toxic)” value in the data set with rat mesangial cells [1] (no concentration stated) turned out to be 2. For the same compound, in the data set on rat mesangial cells [2], the inhibition at 10 µM was determined as 0%, the inhibition at 30 µM was determined as 0% and the inhibition at 100 µM is 0%.
Take `COc1cc2c(cc1OC)CC(C(=O)Nc1ccccc1C(=O)O)CC2` (stereo not shown) [FT130, 2-(6,7-Dimethoxy-1,2,3,4-tetrahydronaphthalene-3-carboxamido)benzoic acid]: the “Tox. Rank (4 = non-toxic)” value in the data set with rat mesangial cells [1] (@100 uM) is 2@100 uM. Further, in the data set with rat mesangial cells [2], the inhibition at 10 µM was around 10%, the inhibition at 30 µM is around 30% and the inhibition at 100 µM is around 50%.
As for `COc1cc2c(cc1OC)/C(=C/C(=O)Nc1ccccc1C(=O)O)CNC2=O` [FT131, (Z)-2-(2-(6,7-Dimethoxy-1-oxo-2,3-dihydroisoquinolin-4(1H)-ylidene)acetamido)benzoic acid], the “Tox. Rank (4 = non-toxic)” value with rat mesangial cells [1] (no concentration stated) was 4. Moreover, in the data set with rat mesangial cells [2], the inhibition at 10 µM is around 20%, the inhibition at 30 µM was around 10% and the inhibition at 100 µM is around 10%.
Take `COc1ccc(/C=C/c2nc3ccccc3c(=O)o2)cc1OC` [FT106, (E)-2-(3,4-Dimethoxystyryl)-4H-benzo[d][1,3]oxazin-4-one]: in the data set with rat mesangial cells [1], the “Cell condition observed (sick, dead)” value is given as “sick” and the “Cell condition observed (sick, dead, some death, cells elongated)” value is “dead”. Besides, the “Tox. Rank (4 = non-toxic)” value with rat mesangial cells [1] (@30 uM) is listed as 2@30 uM. The “Tox. Rank (4 = non-toxic)” value in the data set with rat mesangial cells [1] (@100 uM) is listed as 1@100 uM. Besides, in the data set on rat mesangial cells [2], the inhibition at 10 µM worked out at 0% and the inhibition at 30 µM was found to be 0%.
